{
  "source": "ChEMBL document CHEMBL4610081",
  "about": "“Anti-inflammatory Metabolites from Chaetomium nigricolor” (J Nat Prod, 2020)",
  "key": {"[1]": {"system": "RAW264.7", "experiment": "Antiinflammatory activity against mouse RAW264.7 cells assessed as inhibition of LPS-induced NO production preincubated for 3 hrs followed by LPS-stimulation and measured after 24 hrs by Griess reagent based assay", "type": "functional, cell-based"}, "[2]": {"system": "RAW264.7", "experiment": "Cytotoxicity against mouse RAW264.7 cells assessed as reduction cell viability at 20 uM by MTT assay", "type": "cell-based", "details": "raw264.7, 20 µM"}, "[3]": {"system": "RAW264.7", "experiment": "Antiinflammatory activity against mouse RAW264.7 cells assessed as inhibition of LPS-induced PGE2 production preincubated for 3 hrs followed by LPS-stimulation and measured after 24 hrs by ELISA", "type": "functional, cell-based"}, "[4]": {"system": "RAW264.7", "experiment": "Antiinflammatory activity against mouse RAW264.7 cells assessed as LPS-induced INOS mRNA expression at 2.5 uM preincubated for 3 hrs followed by LPS-stimulation and measured after 24 hrs by RT-PCR analysis (reference value: 8.2)", "type": "functional"}, "[5]": {"system": "RAW264.7", "experiment": "Antiinflammatory activity against mouse RAW264.7 cells assessed as LPS-induced INOS mRNA expression at 5 uM preincubated for 3 hrs followed by LPS-stimulation and measured after 24 hrs by RT-PCR analysis (reference value: 8.2)", "type": "functional"}, "[6]": {"system": "RAW264.7", "experiment": "Antiinflammatory activity against mouse RAW264.7 cells assessed as LPS-induced INOS mRNA expression at 10 uM preincubated for 3 hrs followed by LPS-stimulation and measured after 24 hrs by RT-PCR analysis (reference value: 8.2)", "type": "functional"}, "[7]": {"system": "RAW264.7", "experiment": "Antiinflammatory activity against mouse RAW264.7 cells assessed as LPS-induced COX-2 mRNA expression at 2.5 uM preincubated for 3 hrs followed by LPS-stimulation and measured after 24 hrs by RT-PCR analysis (reference value: 14.39)", "type": "functional"}, "[8]": {"system": "RAW264.7", "experiment": "Antiinflammatory activity against mouse RAW264.7 cells assessed as LPS-induced COX-2 mRNA expression at 5 uM preincubated for 3 hrs followed by LPS-stimulation and measured after 24 hrs by RT-PCR analysis (reference value: 14.39)", "type": "functional"}, "[9]": {"system": "RAW264.7", "experiment": "Antiinflammatory activity against mouse RAW264.7 cells assessed as LPS-induced COX-2 mRNA expression at 10 uM preincubated for 3 hrs followed by LPS-stimulation and measured after 24 hrs by RT-PCR analysis (reference value: 14.39)", "type": "functional"}, "[10]": {"system": "RAW264.7", "experiment": "Antiinflammatory activity against mouse RAW264.7 cells assessed as reduction in LPS-induced IL-1beta mRNA expression preincubated for 3 hrs followed by LPS-stimulation and measured after 12 hrs by RT-PCR analysis", "type": "functional, cell-based"}, "[11]": {"system": "RAW264.7", "experiment": "Antiinflammatory activity against mouse RAW264.7 cells assessed as reduction in LPS-induced TNF-alpha mRNA expression preincubated for 3 hrs followed by LPS-stimulation and measured after 12 hrs by RT-PCR analysis", "type": "functional, cell-based"}, "[12]": {"system": "RAW264.7", "experiment": "Antiinflammatory activity against mouse RAW264.7 cells assessed as reduction in LPS-induced IL6 mRNA expression preincubated for 3 hrs followed by LPS-stimulation and measured after 12 hrs by RT-PCR analysis", "type": "functional, cell-based"}, "[13]": {"system": "RAW264.7", "experiment": "Antiinflammatory activity against mouse RAW264.7 cells assessed as reduction in LPS-induced IL-12 mRNA expression preincubated for 3 hrs followed by LPS-stimulation and measured after 12 hrs by RT-PCR analysis", "type": "functional, cell-based"}, "[14]": {"system": "RAW264.7", "experiment": "Trans-suppression of NFkappaB in mouse RAW264.7 cells assessed as LPS-induced IKB-apha degradation at 2.5 uM preincubated for 3 hrs followed by LPS-stimulation and measured after 1 hr by Western blot analysis (reference value: 0.29)", "type": "cell-based"}, "[15]": {"system": "RAW264.7", "experiment": "Trans-suppression of NFkappaB in mouse RAW264.7 cells assessed as LPS-induced IKB-apha degradation at 5 uM preincubated for 3 hrs followed by LPS-stimulation and measured after 1 hr by Western blot analysis (reference value: 0.29)", "type": "cell-based"}, "[16]": {"system": "RAW264.7", "experiment": "Trans-suppression of NFkappaB in mouse RAW264.7 cells assessed as LPS-induced IKB-apha degradation at 10 uM preincubated for 3 hrs followed by LPS-stimulation and measured after 1 hr by Western blot analysis (reference value: 0.29)", "type": "cell-based"}, "[17]": {"system": "RAW264.7", "experiment": "Trans-suppression of NFkappaB in mouse RAW264.7 cells assessed as LPS-induced IKB-apha phosphorylation at 2.5 uM preincubated for 3 hrs followed by LPS-stimulation and measured after 1 hr by Western blot analysis (reference value: 6.04)", "type": "cell-based"}, "[18]": {"system": "RAW264.7", "experiment": "Trans-suppression of NFkappaB in mouse RAW264.7 cells assessed as LPS-induced IKB-apha phosphorylation at 5 uM preincubated for 3 hrs followed by LPS-stimulation and measured after 1 hr by Western blot analysis (reference value: 6.04)", "type": "cell-based"}, "[19]": {"system": "RAW264.7", "experiment": "Trans-suppression of NFkappaB in mouse RAW264.7 cells assessed as LPS-induced IKB-apha phosphorylation at 10 uM preincubated for 3 hrs followed by LPS-stimulation and measured after 1 hr by Western blot analysis (reference value: 6.04)", "type": "cell-based"}, "[20]": {"system": "RAW264.7", "experiment": "Trans-suppression of NFkappaB in mouse RAW264.7 cells assessed as LPS-induced cytosol-p65 level at 2.5 uM preincubated for 3 hrs followed by LPS-stimulation and measured after 1 hr by Western blot analysis (reference value: 0.09)", "type": "cell-based"}, "[21]": {"system": "RAW264.7", "experiment": "Trans-suppression of NFkappaB in mouse RAW264.7 cells assessed as LPS-induced cytosol-p65 level at 5 uM preincubated for 3 hrs followed by LPS-stimulation and measured after 1 hr by Western blot analysis (reference value: 0.09)", "type": "cell-based"}, "[22]": {"system": "RAW264.7", "experiment": "Trans-suppression of NFkappaB in mouse RAW264.7 cells assessed as LPS-induced cytosol-p65 level at 10 uM preincubated for 3 hrs followed by LPS-stimulation and measured after 1 hr by Western blot analysis (reference value: 0.09)", "type": "cell-based"}, "[23]": {"system": "RAW264.7", "experiment": "Trans-suppression of NFkappaB in mouse RAW264.7 cells assessed as LPS-induced cytosol-p50 level at 2.5 uM preincubated for 3 hrs followed by LPS-stimulation and measured after 1 hr by Western blot analysis (reference value: 0.28)", "type": "cell-based"}, "[24]": {"system": "RAW264.7", "experiment": "Trans-suppression of NFkappaB in mouse RAW264.7 cells assessed as LPS-induced cytosol-p50 level at 5 uM preincubated for 3 hrs followed by LPS-stimulation and measured after 1 hr by Western blot analysis (reference value: 0.28)", "type": "cell-based"}, "[25]": {"system": "RAW264.7", "experiment": "Trans-suppression of NFkappaB in mouse RAW264.7 cells assessed as LPS-induced cytosol-p50 level at 10 uM preincubated for 3 hrs followed by LPS-stimulation and measured after 1 hr by Western blot analysis (reference value: 0.28)", "type": "cell-based"}},
  "note": "pIC50: −log10 of the molar value.",
  "data": [
    {"smiles": "COc1cc(OC)c2c(O)c3c(=O)cc(C)oc3c(-c3c(O)cc4cc(O)c5c(=O)cc(C)oc5c4c3OC)c2c1", "note": "(atropisomer aS) [ASPERPYRONE A]", "values": [
      {"measurement": "Activity", "setting": "[1]", "value": "Dose-dependent effect"},
      {"measurement": "pIC50", "setting": "[1]", "value": 5.07},
      {"measurement": "Activity", "setting": "[2]", "value": "Non-Toxic"},
      {"measurement": "inhibition", "setting": "[3]", "value": "Dose-dependent effect"},
      {"measurement": "fold change (FC)", "setting": "[4]", "value": 8.48},
      {"measurement": "fold change (FC)", "setting": "[5]", "value": 2.62},
      {"measurement": "fold change (FC)", "setting": "[6]", "value": 1.03},
      {"measurement": "fold change (FC)", "setting": "[7]", "value": 12.92},
      {"measurement": "fold change (FC)", "setting": "[8]", "value": 7.56},
      {"measurement": "fold change (FC)", "setting": "[9]", "value": 3.69},
      {"measurement": "Activity", "setting": "[10]", "value": "Dose-dependent effect"},
      {"measurement": "Activity", "setting": "[11]", "value": "Dose-dependent effect"},
      {"measurement": "Activity", "setting": "[12]", "value": "Dose-dependent effect"},
      {"measurement": "Activity", "setting": "[13]", "value": "Dose-dependent effect"},
      {"measurement": "fold change (FC)", "setting": "[14]", "value": 0.31},
      {"measurement": "fold change (FC)", "setting": "[15]", "value": 0.68},
      {"measurement": "fold change (FC)", "setting": "[16]", "value": 0.81},
      {"measurement": "fold change (FC)", "setting": "[17]", "value": 2.93},
      {"measurement": "fold change (FC)", "setting": "[18]", "value": 3.21},
      {"measurement": "fold change (FC)", "setting": "[19]", "value": 2.3},
      {"measurement": "fold change (FC)", "setting": "[20]", "value": 0.42},
      {"measurement": "fold change (FC)", "setting": "[21]", "value": 0.78},
      {"measurement": "fold change (FC)", "setting": "[22]", "value": 1.04},
      {"measurement": "fold change (FC)", "setting": "[23]", "value": 0.55},
      {"measurement": "fold change (FC)", "setting": "[24]", "value": 0.87},
      {"measurement": "fold change (FC)", "setting": "[25]", "value": 1.12}
    ]}
  ]
}
